Source: patent US9078852B2, “Retinaldehyde in the treatment of obesity, diabetes and other conditions” (The Brigham and Women's Hospital, Inc., priority 2008, dated 2015)
Like-named read-outs stand apart in the source and are kept apart here.

Experiments:
[1] = test system: 3T3-L1 mouse pre-adipocyte; test: 3T3-L1 pre-adipocyte differentiation (adipogenesis) assay; type: cell-based; conditions: for adiponectin expression, compound added early: added Day 0 of differentiation; for adiponectin expression / adipogenesis, compound added later: added Day 2 of differentiation
Method: We cultured and differentiated mouse 3T3-L1 preadipocytes and primary fibroblasts isolated from 16-days old embryos using standard procedures (Green, et al., Cell 3:127-33 (1974)). After reaching confluence (DMEM, high glucose, 10% calf serum, Day 0), cells were differentiated (3-isobutyl-1-methylxanthine 0.5 mM, dexamethasone 1 μM, insulin 1.7 μM) for 48 h before media replacement every 48 h (DMEM, 10% FCS insulin, 1.7 μM) for 7 days.
Northern blotting was performed as before with HyBond (Amersham; Ziouzenkova, et al., Proc. Natl. Acad. Sci. USA 100:2730-5 (2003)).
(§1) We determined triglyceride content in lysed cells (RIPA buffer, complete protease inhibitor cocktail, Roche) using an enzymatic colorimetric assay (Wako, Japan) and adiponectin levels via ELISA (R&D, Minneapolis). For Western blotting, cell lysates, plasma, and tissue lysates underwent reducing gel separation (10% acrylamide) and hybridization with RXR (Santa Cruz, Calif.), mouse RBP4 (Alpco), or UCP1 (Chemicon) antibodies.
To test Rald effects on adipogenesis, we performed 3T3-L1 mouse pre-adipocyte differentiation assays in the presence of Rald concentrations similar to those found in fat in vivo. Rald levels as low as 100 nM suppressed mRNA expression of the adipogenic target genes CD36, adiponectin, and aP2. These repressive effects of Rald were evident in a concentration-dependent manner in either the presence or absence of the PPARγ agonist BRL49653 (BRL), a potent adipogenic stimulus.

Human full-length PPARγ2 = molecular target: T1, Human full-length PPARγ2 (Homo sapiens, UniProt P37231); test: Scintillation proximity assay / cell-free radioligand displacement; type: binding
T1 sequence (P37231 1-505): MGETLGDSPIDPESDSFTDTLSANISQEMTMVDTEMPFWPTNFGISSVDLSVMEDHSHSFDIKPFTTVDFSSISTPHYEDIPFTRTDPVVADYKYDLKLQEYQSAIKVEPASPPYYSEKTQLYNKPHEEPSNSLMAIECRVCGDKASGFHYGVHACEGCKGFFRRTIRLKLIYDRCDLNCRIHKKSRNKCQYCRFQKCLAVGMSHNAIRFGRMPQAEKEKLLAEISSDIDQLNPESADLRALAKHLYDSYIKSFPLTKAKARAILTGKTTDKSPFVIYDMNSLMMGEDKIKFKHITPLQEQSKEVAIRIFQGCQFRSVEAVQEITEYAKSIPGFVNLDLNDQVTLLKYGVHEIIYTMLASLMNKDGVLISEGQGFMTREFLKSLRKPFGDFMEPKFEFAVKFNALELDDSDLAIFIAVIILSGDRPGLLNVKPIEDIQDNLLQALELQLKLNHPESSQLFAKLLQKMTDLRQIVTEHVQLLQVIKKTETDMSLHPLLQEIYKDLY
Method: Scintillation proximity assays were performed on our behalf.
(§2) Given these effects of Rald on RXR-LBD activation, we next tested if Rald could inhibit activation of a transfected canonical PPAR response element (PPRE) luciferase construct after RXR and/or PPARγ transfection and respective agonist stimulation (9-cis RA or BRL). […] Similar effects were evident in cell-based PPARγ-LBD assays in the presence of BRL. Thus, Rald suppresses adipogenic gene expression, adipocyte lipid accumulation, RXRα and PPARγ-LBD activation, as well as PPRE responses, all at concentrations (<1 μM) that overlap levels present in rodent fat in vivo. Importantly, these Rald effects diverge from the responses seen to RA.

[2] = test system: PPAR response element (PPRE); test: PPRE luciferase construct after RXR and/or PPARγ transfection; type: cell-based
Description: (§3) Transient transfection of NIH 3T3 cells (2.3×10^4 cells, 24-well plates) with PCMX-β-galactosidase and LBD/yeast Gal 4/luciferase constructs used Fugene (Roche) as before (Ziouzenkova, et al., Proc. Natl. Acad. Sci. USA 100:2730-5 (2003)). For siRNA transfections, 3T3-L1 cells (90% confluence, antibiotic-free DMEM, 10% CS, 24-well plates) received control (sequences C, D) or specific siRXRα and siRXRβ sequences (Santa Cruz) using Lipofectamine 2000/OptiMEM medium (Invitrogen) and media supplemented with 10% FBS 5 h post-transfection. Western blotting evaluated RXR levels post-transfection (48 h). After transfection (48 h), we induced differentiation before analysis after 7 days.
as §2

RARα-LBD = molecular target: T2, RARα-LBD (Homo sapiens, UniProt P10276); test: LBD-GAL4 transfection assay, RARα-LBD; type: cell-based
T2 construct: expressed in transfected cells; host or cells: NIH 3T3 cells
T2 sequence (P10276 183-417 limits assumed): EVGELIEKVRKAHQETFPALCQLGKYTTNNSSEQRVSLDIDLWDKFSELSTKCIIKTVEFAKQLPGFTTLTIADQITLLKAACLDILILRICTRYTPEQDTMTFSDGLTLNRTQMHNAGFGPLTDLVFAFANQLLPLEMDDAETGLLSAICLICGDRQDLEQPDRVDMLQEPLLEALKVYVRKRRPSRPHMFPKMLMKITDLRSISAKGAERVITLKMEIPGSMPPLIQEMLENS
Description: as §3
(§4) Given Rald's suppression of PPARγ agonist-stimulated adipogenesis and adiponectin release, we tested if Rald altered activation of RAR and RXR, and if it did so in a way distinct from other retinoids. Ligand binding domain (LBD)-GAL4 transfection assays were performed in 3T3-NIH fibroblasts in the presence or absence of known specific nuclear receptor agonists and/or Rald. […] Rald alone had no effect on RXRα-LBD activation. […] Thus, Rald plays a distinct, independent role from RA in RXRα-LBD regulation, suppressing ligand-mediated activation.

RXRα-LBD = molecular target: T3, RXRα-LBD (Homo sapiens, UniProt P19793); test: LBD-GAL4 transfection assay, RXRα-LBD; type: cell-based
T3 construct: expressed in transfected cells; host or cells: NIH 3T3 cells
T3 sequence (P19793 227-458 limits assumed): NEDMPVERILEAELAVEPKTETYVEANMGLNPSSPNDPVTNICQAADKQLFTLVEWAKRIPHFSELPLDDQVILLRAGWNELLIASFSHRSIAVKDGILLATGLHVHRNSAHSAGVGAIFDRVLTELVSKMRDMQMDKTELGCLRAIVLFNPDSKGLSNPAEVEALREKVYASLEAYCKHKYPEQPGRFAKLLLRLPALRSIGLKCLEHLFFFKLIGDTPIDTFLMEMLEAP
Description: as §3, §4

[3] = test system: preadipocytes isolated from human visceral fat depots; test: Adipogenesis in preadipocytes from human visceral fat; type: cell-based
PPARγ-LBD = molecular target: T4, PPARγ-LBD (Homo sapiens, UniProt P37231); test: Cell-based PPARγ-LBD assay; conditions: presence of BRL; concentrations <1 μM
T4 construct: expressed in transfected cells; host or cells: NIH 3T3 cells
T4 sequence (P37231 238-503 limits assumed): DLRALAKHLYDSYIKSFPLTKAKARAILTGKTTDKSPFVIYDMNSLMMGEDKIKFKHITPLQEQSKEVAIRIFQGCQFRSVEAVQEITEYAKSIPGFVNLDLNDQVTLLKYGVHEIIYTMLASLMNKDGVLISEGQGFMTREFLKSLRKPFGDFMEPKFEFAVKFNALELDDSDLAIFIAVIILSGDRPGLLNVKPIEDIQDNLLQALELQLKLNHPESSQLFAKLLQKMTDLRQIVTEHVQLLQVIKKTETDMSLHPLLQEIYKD
Description: as §3, §2

ob/ob mice = test: ob/ob mice, intraperitoneal administration, 3 weeks; type: in vivo, mouse; conditions: for percentage of subcutaneous fat relative to total body fat / RBP4 plasma levels as compared to vehicle: retinoids 500 nM
Description: The Standing Committee On Animals at Harvard Medical School approved all protocols.
MRI data (1 mm slices) obtained on a Bruker Avance 500 wide bore spectrometer (11.7 T; 500 MHz for proton) fitted with a gradient amplifier and a 30 mm “birdcage” transmitter/receiver coil was processed with Paravision™ software. Spin Echo parameters included TI weighted images: TE=15 ms and TR=300 ms, matrix=256, FOV=30 mm; RARE images: TE=51 ms, TR=2500 ms, matrix=256, FOV=30 mm. Abdominal fat measurements used axial slices (n=8) at the level of the left renal pelvis.
After acclimation to powdered high fat diet (4 d), food/water intake, oxygen consumption, and carbon dioxide production were measured in metabolic cages (Ancare, Charles River Laboratories). Calculated metabolic rate (Weir equation) was expressed per g body weight. We performed insulin (ITT) and glucose tolerance tests (GTT) after food deprivation (16 h) using intraperitoneal insulin injection (ITT, 0.1 U/ml 0.005 ml/g body weight) or single 25% dextrose (GTT, 0.004 mL/g body weight) administration and glucometer measurements (Accu-Chek Advantage, Roche).
After 3 weeks, subcutaneous fat mass was quantified by magnetic resonance imaging (MRI).

[4] = test system: RXRα/RXRβ siRNA-treated 3T3-L1 adipocytes; test: 3T3-L1 adipogenesis assay after RXRα/RXRβ siRNA; type: cell-based, mouse; conditions: RXRα/RXRβ siRNA 48 hours, differentiation 7 days
Description: as §3, §1
To evaluate Rald effects in an RXR loss of function model, 3T3-L1 adipogenesis assays in the presence of Rald were repeated but after first decreasing RXRα and RXRβ levels using siRNA to each RXR isotype. […]

rats = conditions: cited from earlier work
[5] = cell-free radioligand displacement, read-out: Kd, displacement of high affinity PPARγ agonists
[6] = summary statement, unit inferred, read-out: Kd, receptor binding
[7] = MRI after 3 weeks, i.p., citral 10 μM

## CC1=C(/C=C/C(C)=C\C=C\C(C)=C\C(=O)O)C(C)(C)CCC1 [9-cis RA, reference compound]
[1]
  adiponectin expression, compound added early: inhibited
  adiponectin expression / adipogenesis, compound added later: no effect

## CC1=C(/C=C/C(C)=C\C=C\C(C)=C\C=O)C(C)(C)CCC1 [9-cis Rald]
Human full-length PPARγ2; [5]
  Kd: 5.9 ± 0.7 µM
Human full-length PPARγ2; [6]
  Kd: 5.9 ± 0.7 µM

## CC1=C(/C=C/C(C)=C/C=C/C(C)=C/C=O)C(C)(C)CCC1 [13-cis Rald]
Human full-length PPARγ2; [5]
  Kd: 9.7 ± 1.2 µM
Human full-length PPARγ2; [6]
  Kd: 9.7 ± 1.2 µM

## CN(CCOc1ccc(CC2SC(=O)NC2=O)cc1)c1ccccn1 (stereo not drawn) [BRL, rosiglitazone, reference compound]
[1]
  adiponectin levels induced by BRL stimulation: six-fold increase

## CC1=C(/C=C/C(C)=C/C=C/C(C)=C/C=O)C(C)(C)CCC1 [Rald, retinaldehyde]
[2]; PPARγ and RXR co-transfection and PPARγ agonist stimulation
  inhibition of PPRE activation: 60%
[2]; RXR and/or PPARγ transfection
  PPRE activation by both agonists (9-cis RA or BRL): significantly inhibited
RARα-LBD; compound alone, 3T3-NIH fibroblasts
  RARα-LBD activation: weakly activated
RARα-LBD; in presence of 9-cis RA
  RARα-LBD activation by 9-cis RA: did not alter
RXRα-LBD; compound alone
  RXRα-LBD activation: no effect
RXRα-LBD; in presence of 9-cis RA
  RXRα-LBD activation by 9-cis RA: significantly inhibited
[3]
  adipogenesis: repressed
Human full-length PPARγ2; [6]
  Kd: 11.9 ± 1.9 µM
PPARγ-LBD
  PPARγ-LBD activation: suppresses
ob/ob mice; MRI after 3 weeks, i.p. 500 nM
  subcutaneous fat: significantly less subcutaneous fat
ob/ob mice; [7]
  percentage of subcutaneous fat relative to total body fat: 15.5±0.6%
ob/ob mice; i.p., Rald 500 nM, citral 10 μM
  glucose tolerance: improved
ob/ob mice; i.p., citral 10 μM
  RBP4 plasma levels as compared to vehicle: significantly suppressed
[1]
  adiponectin levels induced by BRL stimulation: mitigated
  adiponectin expression, compound added early: inhibited
  adiponectin expression / adipogenesis, compound added later: also inhibited adipogenesis
[1]; Rald levels as low as 100 nM, presence or absence of BRL
  mRNA expression of adipogenic target genes CD36, adiponectin, aP2: suppressed
[1]; absence and presence of BRL
  lipid accumulation: decreased
[1]; stimulation early or late, concentration-dependent
  adiponectin secretion: decreased
[4]
  adiponectin secretion after siRNA exposure: no additional effects
  triglyceride accumulation after siRNA exposure: further decreased

## CC1=C(/C=C/C(C)=C/C=C/C(C)=C/C(=O)O)C(C)(C)CCC1 [all-trans RA, Retinoic acid, reference compound]
ob/ob mice; [7]
  percentage of subcutaneous fat relative to total body fat: 19.1±1.6%
ob/ob mice; i.p., citral 10 μM
  RBP4 plasma levels as compared to vehicle: no effect
[1]
  adiponectin expression / adipogenesis, compound added later: no effect

## CC(C)=CCCC(C)=CC=O [citral, 3,7-dimethyl-2,6-octadienal]
rats; high doses, rats
  tolerability: well tolerated
rats; rats fed a diet with citral
  body weight versus citral free diet: weighed less
ob/ob mice; i.p., citral 10 μM
  RBP4 plasma levels as compared to vehicle: significantly suppressed

## CC1=C(/C=C/C(C)=C/C=C/C(C)=C/CO)C(C)(C)CCC1 [vitamin A, retinol, reference compound]
ob/ob mice; [7]
  percentage of subcutaneous fat relative to total body fat: 17.3±1.3%
ob/ob mice; i.p., citral 10 μM
  RBP4 plasma levels as compared to vehicle: increased RBP4 plasma levels two-fold
